Tested on: 922993-354-T-J3-PDC complex spheroids, viability
Assay: Anticancer human tumor 922993-354-T-J3-PDC patient-derived endometrial carcinoma cell line growth inhibition [GQUAD]
Details: for IC50: curve of first compound; for viability, T/C: stronger effect = lower value; active = viability on the fitted dose curve at most 10% of control; inactive = the rest
Method in brief: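 Viability of tumor cells grown as complex spheroids with endothelial and stromal cells, exposed to drug combinations. Top concentration at or near clinical Cmax (else 10 microM), diluted in half-log increments.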

[1] = second compound 0.0316 µM, first compound 0.0316 µM
[2] = second compound 0.0316 µM, first compound 0.1 µM
[3] = second compound 0.0316 µM, first compound 0.316 µM
[4] = second compound 0.0316 µM, first compound 1 µM
[5] = second compound 0.0316 µM, first compound 3.16 µM
[6] = second compound 0.0316 µM, first compound 10 µM
[7] = second compound 0.1 µM, first compound 0.0316 µM
[8] = second compound 0.1 µM, first compound 0.1 µM
[9] = second compound 0.1 µM, first compound 0.316 µM
[10] = second compound 0.1 µM, first compound 1 µM
[11] = second compound 0.1 µM, first compound 3.16 µM
[12] = second compound 0.1 µM, first compound 10 µM
[13] = second compound 0.316 µM, first compound 0.0316 µM
[14] = second compound 0.316 µM, first compound 0.1 µM
[15] = second compound 0.316 µM, first compound 0.316 µM
[16] = second compound 0.316 µM, first compound 1 µM
[17] = second compound 0.316 µM, first compound 3.16 µM
[18] = second compound 0.316 µM, first compound 10 µM
[19] = second compound 1 µM, first compound 0.0316 µM
[20] = second compound 1 µM, first compound 0.1 µM
[21] = second compound 1 µM, first compound 0.316 µM
[22] = second compound 1 µM, first compound 1 µM
[23] = second compound 1 µM, first compound 3.16 µM
[24] = second compound 1 µM, first compound 10 µM
[25] = second compound 3.16 µM, first compound 0.0316 µM
[26] = second compound 3.16 µM, first compound 0.1 µM
[27] = second compound 3.16 µM, first compound 0.316 µM
[28] = second compound 3.16 µM, first compound 1 µM
[29] = second compound 3.16 µM, first compound 3.16 µM
[30] = second compound 3.16 µM, first compound 10 µM
[31] = second compound 10 µM, first compound 0.0316 µM
[32] = second compound 10 µM, first compound 0.1 µM
[33] = second compound 10 µM, first compound 0.316 µM
[34] = second compound 10 µM, first compound 1 µM
[35] = second compound 10 µM, first compound 3.16 µM
[36] = second compound 10 µM, first compound 10 µM
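Also: spheroids exposed to compounds for seven days.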
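For viability, T/C in this document: 100% = DMSO vehicle control viability.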

CC(=O)O[C@H]1C(=O)[C@@]2(C)[C@H]([C@H](OC(=O)c3ccccc3)[C@]3(O)C[C@H](OC(=O)[C@H](O)[C@@H](NC(=O)c4ccccc4)c4ccccc4)C(C)=C1C3(C)C)[C@]1(OC(C)=O)CO[C@@H]1C[C@@H]2O + Cc1[nH]c2ccc(F)cc2c1-c1nc2c3cccnc3c3ncccc3c2[nH]1
6760 nM: IC50 (second compound 0.0316 µM)
> 10000 nM: IC50 (second compound 0.1 µM) | IC50 (second compound 0.316 µM) | IC50 (second compound 10 µM)
inactive: viability, T/C [1] 109% | viability, T/C [2] 84.6% | viability, T/C [3] 124% | viability, T/C [4] 115% | viability, T/C [5] 68.4% | viability, T/C [6] 40.5% | viability, T/C [7] 124% | viability, T/C [8] 87.3% | viability, T/C [9] 96.6% | viability, T/C [10] 119% | viability, T/C [11] 75.7% | viability, T/C [12] 49.6% | viability, T/C [13] 98.8% | viability, T/C [14] 90.4% | viability, T/C [15] 136% | viability, T/C [16] 89.2% | viability, T/C [17] 88.1% | viability, T/C [18] 50.3% | viability, T/C [19] 103% | viability, T/C [20] 126% | viability, T/C [21] 119% | viability, T/C [22] 109% | viability, T/C [23] 81.3% | viability, T/C [24] 47.8% | viability, T/C [25] 104% | viability, T/C [26] 115% | viability, T/C [27] 124% | viability, T/C [28] 136% | viability, T/C [29] 93.6% | viability, T/C [30] 40.9% | viability, T/C [31] 97.7% | viability, T/C [32] 94% | viability, T/C [33] 117% | viability, T/C [34] 105% | viability, T/C [35] 86.2% | viability, T/C [36] 57.7%
9270 nM: IC50 (second compound 1 µM)
8190 nM: IC50 (second compound 3.16 µM)

CCCS(=O)(=O)Nc1ccc(F)c(C(=O)c2c[nH]c3ncc(-c4ccc(Cl)cc4)cc23)c1F + Cc1[nH]c2ccc(F)cc2c1-c1nc2c3cccnc3c3ncccc3c2[nH]1
inactive: viability, T/C [1] 113% | viability, T/C [2] 101% | viability, T/C [3] 78.5% | viability, T/C [4] 69.4% | viability, T/C [5] 77.3% | viability, T/C [6] 68.4% | viability, T/C [7] 119% | viability, T/C [8] 99.2% | viability, T/C [9] 75.7% | viability, T/C [10] 81.2% | viability, T/C [11] 76.9% | viability, T/C [12] 57.1% | viability, T/C [13] 101% | viability, T/C [14] 82.4% | viability, T/C [15] 81.5% | viability, T/C [16] 77.2% | viability, T/C [17] 78.2% | viability, T/C [18] 56.2% | viability, T/C [19] 93% | viability, T/C [20] 83.5% | viability, T/C [21] 61.9% | viability, T/C [22] 92.9% | viability, T/C [23] 82% | viability, T/C [24] 56.7% | viability, T/C [25] 91.2% | viability, T/C [26] 98.6% | viability, T/C [27] 82.5% | viability, T/C [28] 87.5% | viability, T/C [29] 76.4% | viability, T/C [30] 60.9% | viability, T/C [31] 96.9% | viability, T/C [32] 99.7% | viability, T/C [33] 85.4% | viability, T/C [34] 81.4% | viability, T/C [35] 76.9% | viability, T/C [36] 64%
> 10000 nM: IC50 (second compound 0.0316 µM) | IC50 (second compound 0.1 µM) | IC50 (second compound 0.316 µM) | IC50 (second compound 1 µM) | IC50 (second compound 3.16 µM) | IC50 (second compound 10 µM)

Cc1[nH]c2ccccc2c1CCNCc1ccc(/C=C/C(=O)NO)cc1 + Cc1[nH]c2ccc(F)cc2c1-c1nc2c3cccnc3c3ncccc3c2[nH]1
> 316 nM: IC50 (second compound 0.0316 µM) | IC50 (second compound 0.1 µM) | IC50 (second compound 0.316 µM) | IC50 (second compound 1 µM) | IC50 (second compound 3.16 µM) | IC50 (second compound 10 µM)
inactive: viability, T/C (second compound 0.0316 µM, first compound 0.000999 µM) 95.9% | viability, T/C (second compound 0.0316 µM, first compound 0.00316 µM) 87% | viability, T/C (second compound 0.0316 µM, first compound 0.00999 µM) 100% | viability, T/C [1] 77.6% | viability, T/C (second compound 0.0316 µM, first compound 0.0999 µM) 75.6% | viability, T/C [3] 61.3% | viability, T/C (second compound 0.1 µM, first compound 0.000999 µM) 94.1% | viability, T/C (second compound 0.1 µM, first compound 0.00316 µM) 100% | viability, T/C (second compound 0.1 µM, first compound 0.00999 µM) 85.3% | viability, T/C [7] 83.3% | viability, T/C (second compound 0.1 µM, first compound 0.0999 µM) 79.3% | viability, T/C [9] 55.8% | viability, T/C (second compound 0.316 µM, first compound 0.000999 µM) 96.2% | viability, T/C (second compound 0.316 µM, first compound 0.00316 µM) 93.5% | viability, T/C (second compound 0.316 µM, first compound 0.00999 µM) 91% | viability, T/C [13] 81.2% | viability, T/C (second compound 0.316 µM, first compound 0.0999 µM) 88.3% | viability, T/C [15] 66.9% | viability, T/C (second compound 1 µM, first compound 0.000999 µM) 96.3% | viability, T/C (second compound 1 µM, first compound 0.00316 µM) 92.2% | viability, T/C (second compound 1 µM, first compound 0.00999 µM) 115% | viability, T/C [19] 84% | viability, T/C (second compound 1 µM, first compound 0.0999 µM) 100% | viability, T/C [21] 50.6% | viability, T/C (second compound 3.16 µM, first compound 0.000999 µM) 93.5% | viability, T/C (second compound 3.16 µM, first compound 0.00316 µM) 80.6% | viability, T/C (second compound 3.16 µM, first compound 0.00999 µM) 80% | viability, T/C [25] 79.1% | viability, T/C (second compound 3.16 µM, first compound 0.0999 µM) 95.4% | viability, T/C [27] 71.8% | viability, T/C (second compound 10 µM, first compound 0.000999 µM) 82.6% | viability, T/C (second compound 10 µM, first compound 0.00316 µM) 109% | viability, T/C (second compound 10 µM, first compound 0.00999 µM) 88.2% | viability, T/C [31] 82.8% | viability, T/C (second compound 10 µM, first compound 0.0999 µM) 112% | viability, T/C [33] 70.3%

O=C(NO)c1cnc(N2CCN(S(=O)(=O)c3ccc4ccccc4c3)CC2)nc1 + Cc1[nH]c2ccc(F)cc2c1-c1nc2c3cccnc3c3ncccc3c2[nH]1
409 nM: IC50 (second compound 0.0316 µM)
active: viability, T/C [5] 3.09% | viability, T/C [6] 0.42% | viability, T/C [12] 0.48% | viability, T/C [17] 4.7% | viability, T/C [18] 0.61% | viability, T/C [24] 0.62% | viability, T/C [30] 0.64% | viability, T/C [36] 0.76%
inactive: viability, T/C [1] 116% | viability, T/C [2] 89.1% | viability, T/C [3] 52.9% | viability, T/C [4] 34.6% | viability, T/C [7] 114% | viability, T/C [8] 89.5% | viability, T/C [9] 65% | viability, T/C [10] 38.6% | viability, T/C [11] 3.39% | viability, T/C [13] 93.2% | viability, T/C [14] 95.9% | viability, T/C [15] 72.2% | viability, T/C [16] 46.6% | viability, T/C [19] 84.2% | viability, T/C [20] 90.3% | viability, T/C [21] 68.7% | viability, T/C [22] 51.2% | viability, T/C [23] 6.64% | viability, T/C [25] 75.7% | viability, T/C [26] 86.5% | viability, T/C [27] 91.1% | viability, T/C [28] 51.4% | viability, T/C [29] 15% | viability, T/C [31] 82.8% | viability, T/C [32] 101% | viability, T/C [33] 74.7% | viability, T/C [34] 48.2% | viability, T/C [35] 14.7%
1120 nM: IC50 (second compound 3.16 µM)
870 nM: IC50 (second compound 1 µM)
542 nM: IC50 (second compound 0.1 µM)
772 nM: IC50 (second compound 0.316 µM)
921 nM: IC50 (second compound 10 µM)

Source: PubChem BioAssay AID2060489 (Molecular Pharmacology Branch, DTP, NCI, 2025)
